Assay results from the RepoRT retention time repository (doi:10.1021/acs.analchem.2c02893).

Assay: RP, Thermo Scientific Acclaim RSLC 120 C18, 100 × 2.1 mm, 2.2 µm, 30 °C, 0.2 mL/min, estimated dead time 1.1 min; A: 90% water + 10% methanol + 0.01% formic acid + 5 mM ammonium formate, pH 3.61; B: methanol + 0.01% formic acid + 5 mM ammonium formate, pH 3.61; gradient (min/%B) 0/1 1/1 2/39 13/99.9 15/99.9 15.1/1 20.1/1
Details: stereoisomer not certain

Row | Structure (SMILES) | LC retention time
1 | CCOP(=S)(OCC)Oc1cc(-c2ccccc2)on1 [Isoxathion] | 11.3 min
2 | CCc1cnc(C2=NC(C)(C(C)C)C(=O)N2)c(C(=O)O)c1 (configuration not stated) [Imazethapyr] | 5.6 min
3 | CN1CC2c3ccccc3Oc3ccc(Cl)cc3C2C1 (configuration not stated) [Asenapine] | 7.39 min
4 | CCC(=O)OC(OP(=O)(CCCCc1ccccc1)CC(=O)N1CC(C2CCCCC2)CC1C(=O)O)C(C)C (configuration not stated) [Fosinopril] | 12.4 min
5 | CCOC(=O)C(CCc1ccccc1)NC(C)C(=O)N1CCCC1C(=O)O (configuration not stated) [Enalapril] | 6.83 min
6 | COc1ccsc1CN(C(=O)CCl)c1c(C)cccc1C [Thenylchlor] | 10.1 min
7 | Nc1ncnc(Nc2ccc(Cl)cc2)n1 [Chlorazanil] | 7.46 min
8 | Fc1ccc(C2CCNCC2COc2ccc3c(c2)OCO3)cc1 (configuration not stated) [Paroxetine] | 7.87 min
9 | CN1CCCC1CCOC(C)(c1ccccc1)c1ccc(Cl)cc1 (configuration not stated) [Clemastine] | 9.31 min
10 | CNC(C)C(=O)c1ccc(OC)cc1 (configuration not stated) [Methedrone] | 4.16 min
11 | Cc1ccc(N=CN(C)C=Nc2ccc(C)cc2C)c(C)c1 [Amitraz] | 13.3 min
12 | CCC1(c2ccc(N)cc2)CCC(=O)NC1=O (configuration not stated) [Aminoglutethimide] | 4.99 min
13 | CC(=NC#N)N(C)Cc1ccc(Cl)nc1 [Acetamiprid] | 5.17 min
14 | COC(=O)c1ccccc1C(=O)c1ccc(OCCN2CCCCC2)cc1 [Pitofenone] | 5.44 min
15 | COP(=S)(Oc1cc(Cl)c(Br)cc1Cl)c1ccccc1 (configuration not stated) [Leptophos] | 13.8 min
16 | CN1C(=O)CC(=O)N(c2ccccc2)c2cc(Cl)ccc21 [Clobazam] | 8.08 min
17 | CCCOc1ccc(S(=O)(=O)N2CCN(CCO)CC2)cc1-c1nc2c(CCC)cn(CC)c2c(=O)[nH]1 [Mirodenafil] | 9.49 min
18 | CC(=O)N1CCN(c2ccc(OCC3COC(Cn4ccnc4)(c4ccc(Cl)cc4Cl)O3)cc2)CC1 (configuration not stated) [Ketoconazole] | 9.4 min
19 | COc1ccc2cccc(CCNC(C)=O)c2c1 [Agomelatine] | 8.68 min
20 | O=C(c1ccccc1)c1ccc2n1CCC2C(=O)O (configuration not stated) [Ketorolac] | 6.94 min
21 | COc1ccc(Cl)cc1C(=O)NCCc1ccc(S(=O)(=O)NC(=O)NC2CCCCC2)cc1 [Glibenclamide] | 9.98 min
22 | Clc1ccc2c(c1)CCc1cccnc1C2=C1CCNCC1 [Desloratadine] | 7.48 min

Row | Structure (SMILES) | LC retention time
23 | CC1(C)C(C=C(Cl)Cl)C1C(=O)OC(C#N)c1ccc(F)c(Oc2ccccc2)c1 (configuration not stated) [Cyfluthrin (Baythroid)] | 13 min
24 | O=C(Nc1ccccc1)Nc1ccnc(Cl)c1 [Forchlorfenuron] | 8.53 min
25 | CCOC(=O)C1=NOC(c2ccccc2)(c2ccccc2)C1 [Isoxadifen-ethyl] | 10.7 min
26 | CC(C)(C)C(O)C(Cc1ccc(Cl)cc1Cl)n1cncn1 (configuration not stated) [Diclobutrazol] | 10.7 min
27 | CC1(OC(=O)C=Cc2ccccc2)CC(O)C2(O)C=COC(OC3OC(CO)C(O)C(O)C3O)C12 (configuration not stated) [Harpagoside] | 8.25 min
28 | Cc1ncsc1CCCl [Clomethiazole] | 6.69 min
29 | COC(=O)C1C(O)CC2CCC1N2C (configuration not stated) [EME (Ecgonine methyl ester)] | 1.38 min
30 | COP(=S)(OC)SCC(=O)N(c1ccc(Cl)cc1)C(C)C [Anilofos] | 10.8 min
31 | CCOC(=O)c1ccccc1S(=O)(=O)NC(=O)Nc1nc(Cl)cc(OC)n1 [Chlorimuronethyl] | 9.3 min
32 | CCCc1nc(C)c2c(=O)[nH]c(-c3cc(S(=O)(=O)N4CCN(CC)CC4)ccc3OCC)nn12 [Vardenafil] | 8.11 min
33 | O=S(O)(O)=S [THJ] | 13.7 min
34 | CN1C2CCC1C(C(=O)O)C(OC(=O)c1ccccc1)C2 (configuration not stated) [Benzoylecgonine] | 4.68 min
35 | CN(Cc1nc2c(N)nc(N)nc2[nH]c1=O)c1ccc(C(=O)NC(CCC(=O)O)C(=O)O)cc1 (configuration not stated) [7-Hydroxymethotrexat] | 4.69 min
36 | CNC(=O)CSP(=O)(OC)OC [Omethoate] | 3.35 min
37 | CCC(C)(C)c1ccc(CC(C)CN2CC(C)OC(C)C2)cc1 (configuration not stated) [Amorolfine] | 12.9 min
38 | NCC(O)c1ccccc1 (configuration not stated) [Apophedrin  (Phenylethanolamine)] | 2.84 min
39 | CCN(CC)CCOCCOC(=O)C(CC)(CC)c1ccccc1 [Oxeladin] | 8.04 min
40 | Cc1ccccc1CN1CCN(CCOC(c2ccccc2)c2ccccc2Cl)CC1 (configuration not stated) [Chlorbenzoxamine] | 10.8 min
41 | CN1COCN(Cc2cnc(Cl)s2)C1=N[N+](=O)[O-] [Thiamethoxam] | 4.25 min
42 | O=C(O)CCCn1cc(C(=O)c2cccc3ccccc23)c2ccccc21 [JWH-073-M-N-Butanoic acid] | 9.33 min
43 | CNC(C)C(=O)c1ccccc1 (configuration not stated) [Methcathinone] | 3.68 min
44 | CNC(=C[N+](=O)[O-])NCCSCc1ccc(C[N+](C)(C)[O-])o1 [Ranitidine-N-oxide] | 3.43 min

Row | Structure (SMILES) | LC retention time
45 | CCCCCn1cc(C(=O)c2cccc3ccccc23)c2cc(O)ccc21 [JWH-018-M-5-OH-Ind] | 11.3 min
46 | COP(=S)(OC)Oc1ccc(Sc2ccc(OP(=S)(OC)OC)cc2)cc1 [Temephos] | 12.4 min
47 | CCOP(=O)(OCC)SCCSCC.CCOP(=S)(OCC)OCCSCC [Demeton] | 8.91 min
48 | CCCCC1=NC2(CCCC2)C(=O)N1Cc1ccc(-c2ccccc2-c2nn[nH]n2)cc1 [Irbesartan] | 9.44 min
49 | Cc1cccc(C)c1N(Cn1cccn1)C(=O)C(=O)O [Metazachlor OA] | 5.09 min
50 | CC(C)(C)C(O)C(=Cc1ccc(Cl)cc1Cl)n1cncn1 (configuration not stated) [Diniconazole] | 11.5 min
51 | NS(=O)(=O)Cc1noc2ccccc12 [Zonisamide] | 4.53 min
52 | CCc1cccc(CC)c1N(COC)C(=O)CS(=O)(=O)O [Alachlor-ESA] | 7.19 min
53 | CCOP(=S)(OCC)OP(=S)(OCC)OCC [Sulfotepp] | 10.8 min
54 | CC(C)[N+](C)(CCOC(=O)C1c2ccccc2Oc2ccccc21)C(C)C [Propantheline (I+)] | 7.35 min
55 | O=C(O)c1cccnc1Nc1cccc(C(F)(F)F)c1 [Niflumic acid] | 9.86 min
56 | O=C(O)C(c1ccccc1)C1CCCCN1 (configuration not stated) [Ritalinic acid] | 4.61 min
57 | COP(=O)(OC)OC(C)=CC(=O)N(C)C [Dicrotophos] | 4.5 min
58 | CCOP(=O)(OCC)OP(=O)(OCC)OCC [TEPP] | 6.49 min
59 | CC12CCC3c4ccc(O)cc4CCC3C1CCC2O (configuration not stated) | 12 min
60 | CCN(CC)CCNC(=O)c1cc(Cl)c(N)cc1OC [Metoclopramide] | 4.36 min
61 | CC(C)(C)NCC(O)c1ccc(O)c(NC(N)=O)c1 (configuration not stated) [Carbuterol] | 2.89 min
62 | CNP(=O)(OC)Oc1ccc(C(C)(C)C)cc1Cl (configuration not stated) [Crufomate] | 10.5 min
63 | CNC(C)C(O)c1ccc(O)cc1 (configuration not stated) [Synphrine-Methyl] | 2.05 min
64 | CCC1C(=O)OCC1Cc1cncn1C (configuration not stated) [Pilocarpine] | 2.74 min
65 | CC=CCC1=C(C)C(OC(=O)C2C(C=C(C)C(=O)OC)C2(C)C)CC1=O (configuration not stated) [Pyrethrins: Cinerin II] | 11.6 min
66 | CN1CCC(=C2c3ccccc3C=Cc3ccccc32)CC1 [Cyproheptadine] | 7.89 min

Row | Structure (SMILES) | LC retention time
67 | COCCC(N)C(=O)O (configuration not stated) [AMB] | 11.8 min
68 | Cc1ccc(NC=O)c(C)c1 [N-2-4-Dimethylphenylformamide (DMF. Metabolite Amitraz)] | 6.67 min
69 | Cc1cccc(N(C)C(=S)Oc2ccc3ccccc3c2)c1 [Tolnaftate] | 12.2 min
70 | CCCCCCCCCCCC(=O)NCCC[N+](C)(C)CC(=O)O [Lauramidopropylbetaine] | 13.1 min
71 | c1cc[c]([Sn+]([c]2ccccc2)[c]2ccccc2)cc1 [Fentin (triphenylstannylium) (1+)] | 10.4 min
72 | CCCCN(C)C(=O)Nc1ccc(Cl)c(Cl)c1 [Neburon] | 10.7 min
73 | COP(N)(=S)Oc1ccccc1C(=O)OC(C)C (configuration not stated) [Isocarbophos] | 8.32 min
74 | Cc1c(C(C)C)c(=O)n(-c2ccccc2)n1C [Propyphenazone] | 7.23 min
75 | CC(C)N(C(=O)CS(=O)(=O)O)c1ccccc1 [Propachlor-ESA] | 5.46 min
76 | NC(=O)N1c2ccccc2CC(O)c2ccccc21 (configuration not stated) [Carbamazepine -10-Hydroxy] | 5.94 min
77 | CCOP(=O)(OCC)Oc1ccc([N+](=O)[O-])cc1 [Paraoxon] | 8.01 min
78 | CCCCCn1cc(C(=O)NC23CC4CC(CC(C4)C2)C3)c2ccccc21 [APICA] | 13.2 min
79 | O=C1c2ccccc2C(=O)C1C(=O)C(c1ccccc1)c1ccc(Cl)cc1 (configuration not stated) [Chlorophacinone] | 9.74 min
80 | Oc1ccc2c3c1OC1C(O)C=CC4C(C2)NCCC341 (configuration not stated) [Morphine-Nor] | 2.71 min
81 | COC(=O)C1C2CC3c4[nH]c5cc(OC)ccc5c4CCN3CC2CC(OC(=O)c2cc(OC)c(OC)c(OC)c2)C1OC (configuration not stated) [Reserpine] | 8.47 min
82 | Cn1c(-c2ccccc2)cc(-c2ccccc2)[n+]1C [Difenzoquat (Ion 1+)] | 5.21 min
83 | COC(=O)CCCOc1ccc(Cl)cc1Cl [2.4-DB-methylester] | 11.3 min
84 | CN1C(=O)C(O)N=C(c2ccccc2Cl)c2cc(Cl)ccc21 (configuration not stated) [Lormetazepam] | 8.61 min
85 | CCSc1cc(OC)c(CCN)cc1OC [2CT-2] | 5.88 min
86 | COc1cc(CCN)cc(OC)c1OC [Mescaline] | 3.88 min
87 | CNC(C)C1CCC(N)C(OC2C(N)CC(N)C(OC3OCC(C)(O)C(NC)C3O)C2O)O1 (configuration not stated) [Gentamycin] | 11.6 min
